This is an account of results in ChEMBL document CHEMBL1944505, “Novel synthetic methods for N-cyano-1H-imidazole-4-carboxamides and their fungicidal activity” (Bioorg Med Chem Lett, 2012).

Each structure is given as a SMILES string. In brackets after ≈: the same amount, converted by molar mass. Activity calls are given as the source filed them. No cut-off for these calls is given here.

In assay [1] the test system is Rhizoctonia solani. Nature of the assay: Antifungal activity against Rhizoctonia solani by agar plate method. The class given is functional, organism-based.
In the next assay the test system is Fusarium graminearum. Nature of the assay: Antifungal activity against Gibberella zeae at 50 ug/mL by agar plate method. The class given is functional, organism-based.
Assay [2] is described as follows: Antifungal activity against Dothiorella gregaria at 50 ug/mL by agar plate method. The class given is functional.
The subject of a further assay is Colletotrichum. The assay is described as follows: Antifungal activity against Colletotrichum gossypii at 50 ug/mL by agar plate method. The class given is functional.
A further assay relates to Fusarium oxysporum. Nature of the assay: Antifungal activity against Fusarium oxysporum at 50 ug/mL by agar plate method. The class given is functional, organism-based.
A further assay deals with Botrytis. The assay is described as follows: Antifungal activity against Botrytis […] at 50 ug/mL by agar plate method. The class given is functional.
The subject of assay [3] is Rhizoctonia solani. Nature of the assay: Ratio of triadimefon EC50 to compound EC50 for Rhizoctonia solani. The class given is functional.

`CCCCn1cnc(C(=O)N(C#N)Cc2ccccc2)c1C`: in the assay on Rhizoctonia solani [1], a half-maximal effect (EC50) was put at 7.98 µg/mL (≈ 26.9 µM). The result (in the assay on Fusarium graminearum; in assay [2]; in the assay with Colletotrichum; with Fusarium oxysporum; in the assay with Botrytis) was inactive.
For `Cc1c(C(=O)N(C#N)Cc2ccccc2)ncn1Cc1ccc(F)cc1`, the midpoint of the response with Rhizoctonia solani [1], the EC50, lay at 31.3 µg/mL (≈ 89.9 µM). The result (with Fusarium graminearum; in assay [2]; in the assay with Colletotrichum; in the assay on Fusarium oxysporum; with Botrytis) was inactive.
In the case of `Cc1ccc(Cn2cnc(C(=O)N(C#N)Cc3ccccc3F)c2C)cc1`, in the assay on Rhizoctonia solani [1], a half-maximal response (EC50) required 8.76 µg/mL (≈ 24.2 µM). The outcome (with Fusarium graminearum; in assay [2]; in the assay on Colletotrichum; in the assay with Fusarium oxysporum; with Botrytis) was inactive.
As to `Cc1c(C(=O)N(C#N)Cc2ccc(F)cc2)ncn1Cc1ccc(F)cc1`, in the assay on Rhizoctonia solani [1], the half-maximal effective concentration (EC50) (as a rule, the concentration at which the effect is half-maximal) was 20.8 µg/mL (≈ 56.8 µM). For the same compound, the outcome (with Fusarium graminearum; in assay [2]; in the assay on Colletotrichum; with Fusarium oxysporum; in the assay on Botrytis) was inactive.
Take `Cc1ccc(Cn2cnc(C(=O)N(C#N)Cc3ccc(F)cc3)c2C)cc1`: the midpoint of the response in the assay with Rhizoctonia solani [1], the EC50, lay at 3.04 µg/mL (≈ 8.39 µM). For the same compound, the result (in the assay on Fusarium graminearum; in assay [2]; with Colletotrichum; in the assay on Fusarium oxysporum; with Botrytis) was inactive.
`CCCCn1cnc(C(=O)N(C#N)Cc2ccccc2F)c1C` yielded a concentration for a half-maximal effect (EC50) with Rhizoctonia solani [1] of 13.3 µg/mL (≈ 42.2 µM). Also, the outcome (in the assay with Fusarium graminearum; in assay [2]; with Colletotrichum; with Fusarium oxysporum; in the assay with Botrytis) was inactive.
Compound `Cc1ccc(CN(C#N)C(=O)c2ncn(Cc3ccc(C)cc3)c2C)cc1` gave an EC50 with Rhizoctonia solani [1] of 15.8 µg/mL (≈ 44.1 µM). Also, the result (in the assay on Fusarium graminearum; in assay [2]; in the assay with Colletotrichum; in the assay on Fusarium oxysporum; in the assay on Botrytis) was inactive.
`Cc1ccc(Cn2cnc(C(=O)N(C#N)CCCc3ccccc3)c2C)cc1` registered a concentration for a half-maximal effect (EC50) with Rhizoctonia solani [1] of 4.64 µg/mL (≈ 12.5 µM). The result (with Fusarium graminearum; in assay [2]; in the assay with Colletotrichum; in the assay with Fusarium oxysporum; in the assay on Botrytis) was inactive.
In turn, `COC(=O)c1ccccc1CN(C#N)C(=O)c1ncn(Cc2ccc(F)cc2)c1C` displayed an EC50 in the assay with Rhizoctonia solani [1] of 13.3 µg/mL (≈ 32.6 µM). For the same compound, the result (with Fusarium graminearum; in assay [2]; with Colletotrichum; in the assay with Fusarium oxysporum; in the assay with Botrytis) was inactive.
For `Cc1c(C(=O)N(C#N)Cc2ccc(F)cc2)ncn1Cc1cccc([N+](=O)[O-])c1`, a half-maximal effect in the assay with Rhizoctonia solani [1] (EC50) was put at 3.61 µg/mL (≈ 9.18 µM). Further, the outcome (in the assay on Fusarium graminearum; in assay [2]; with Colletotrichum; in the assay on Fusarium oxysporum; in the assay on Botrytis) was inactive.
As to `Cc1c(C(=O)N(C#N)Cc2ccccc2F)ncn1Cc1cccc([N+](=O)[O-])c1`, the concentration giving a half-maximal response (EC50) in the assay on Rhizoctonia solani [1] worked out at 6.67 µg/mL (≈ 17 µM). Moreover, the outcome (in the assay with Fusarium graminearum; in assay [2]; in the assay with Colletotrichum; in the assay with Fusarium oxysporum; with Botrytis) was inactive.
Regarding `Cc1c(C(=O)N(C#N)Cc2ccccc2)ncn1Cc1ccccc1`, the EC50 in the assay on Rhizoctonia solani [1] stood at 7.74 µg/mL (≈ 23.4 µM). Also, the outcome (in the assay on Fusarium graminearum; in assay [2]; in the assay on Colletotrichum; with Fusarium oxysporum; in the assay with Botrytis) was inactive.
For the compound `CC(C)(C)C(=O)C(Oc1ccc(Cl)cc1)n1cncn1` (stereo not drawn) [TRIADIMEFON], a half-maximal response in the assay with Rhizoctonia solani [1] (EC50) required 14.7 µg/mL (≈ 50 µM).
`Cc1c(C(=O)N(C#N)Cc2ccc(F)cc2F)ncn1Cc1ccc(F)cc1` displayed an EC50 in the assay on Rhizoctonia solani [1] of 2.63 µg/mL (≈ 6.84 µM). Also, the outcome (with Fusarium graminearum; in assay [2]; in the assay with Colletotrichum; in the assay with Fusarium oxysporum; in the assay on Botrytis) was inactive. In the assay on Rhizoctonia solani [3], the “Ratio EC50” value stood at 5.6.
Turning to `Cc1ccc(Cn2cnc(C(=O)N(C#N)Cc3ccccc3)c2C)cc1`, the midpoint of the response in the assay on Rhizoctonia solani [1], the EC50, lay at 3.04 µg/mL (≈ 8.83 µM). The outcome (with Fusarium graminearum; in assay [2]; in the assay with Colletotrichum; in the assay with Fusarium oxysporum; in the assay with Botrytis) was inactive.
Take `CCCCN(C#N)C(=O)c1ncn(CCCC)c1C`: in the assay with Rhizoctonia solani [1], the half-maximal effective concentration (EC50) was determined as 9.01 µg/mL (≈ 34.3 µM). The result (in the assay on Fusarium graminearum; in assay [2]; in the assay on Colletotrichum; with Fusarium oxysporum; in the assay with Botrytis) was inactive.
The compound `Cc1ccc(Cn2cnc(C(=O)N(C#N)Cc3ccccc3Cl)c2C)cc1` showed a concentration for a half-maximal effect (EC50) in the assay with Rhizoctonia solani [1] of 3.53 µg/mL (≈ 9.32 µM). Further, the outcome (in the assay with Fusarium graminearum; in assay [2]; in the assay with Colletotrichum; with Fusarium oxysporum; with Botrytis) was inactive.
